In brackets after ≈: the same amount, converted by molar mass. Results filed as inconclusive are left out. Activity calls are given as the source filed them. No rule for the calls is given here.
These molecules were tested on M. tuberculosis H37Rv growth inhibition (assay: Confirmatory growth inhibition assay against Mycobacterium tuberculosis H37Rv, potency (AID 1949);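 also: bacteria grown 7 days with compound before Alamar blue readout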).

Q: With Cc1ccc(Sc2ccc(C=O)o2)cc1 as the molecule, how does the IC50 read?
A: Its IC50 is 2.15 µg/mL (≈ 9.85 µM).

Q: With O=C(NC(Nc1ccc([N+](=O)[O-])cc1)C(Cl)(Cl)Cl)c1cccc(I)c1 (stereo not given) as the molecule, how does the IC50 read?
A: The IC50 was 7.08 µg/mL (≈ 13.8 µM).

Q: COc1ccc(-c2nn(-c3ccccc3)cc2CNCc2ccccc2)cc1 was tested. Which IC50 did it give?
A: Its IC50 is 6.04 µg/mL (≈ 16.3 µM).

Q: Which IC50 does the source give for COc1cc(CNC23CC4CC(CC(C4)C2)C3)ccc1OCc1ccccc1 here?
A: Its IC50 is > 50 µg/mL (inactive).

Q: Which IC50 does the source give for CC1(C)Oc2ccc3ccc(=O)oc3c2C(C=O)=C1Cl here?
A: Its IC50 is 1.03 µg/mL (≈ 3.54 µM).

Q: CC12CC3CC(C)(C1)CC(CNCc1ccccc1O)(C3)C2 was tested. Which IC50 did it give?
A: The IC50 was 2.89 µg/mL (≈ 9.65 µM).

Q: Cc1cc(C)c2[nH]c3ccccc3c2n1 was tested. Which IC50 did it give?
A: Its IC50 is 1.3 µg/mL (≈ 6.62 µM).

Q: For CC1CCCN(Cc2c(O)ccc3c(=O)c(-c4nc5ccccc5s4)c(N)oc23)C1 (stereo not given), which IC50 is on record?
A: The IC50 was 23.6 µg/mL (≈ 55.9 µM).

Q: Which IC50 does the source give for C=C(C)CN1CCN(c2nc(NCc3ccco3)c3ccccc3n2)CC1 here?
A: The IC50 was 4.56 µg/mL (≈ 12.5 µM).

Q: With Cc1ccc(-c2csc(Nc3ccc(C(=O)O)c(O)c3)n2)cc1 as the molecule, how does the IC50 read?
A: The IC50 was 1.46 µg/mL (≈ 4.47 µM).

Q: For O=C(CCNc1cccc(Cl)c1)c1ccc([N+](=O)[O-])cc1, which IC50 is on record?
A: The IC50 was 2.87 µg/mL (≈ 9.42 µM).

Q: O=C1C(=O)N(Cc2ccccc2Cl)c2ccc(Br)cc21 was tested. Which IC50 did it give?
A: Its IC50 is 3.79 µg/mL (≈ 10.8 µM).

Q: Cc1nc2cc(NCc3cccc([N+](=O)[O-])c3)ccc2n1Cc1ccccc1 was tested. Which IC50 did it give?
A: Its IC50 is 5.75 µg/mL (≈ 15.4 µM).

Q: With Cc1cccc(-c2nnc(SCC(=O)NCCc3ccccc3)o2)c1 as the molecule, how does the IC50 read?
A: Its IC50 is 0.25 µg/mL (≈ 0.707 µM).

Q: How did the IC50 turn out when COc1ccc(-c2c(C)oc3cc(OCC(=O)OC(C)C)ccc3c2=O)cc1OC was run?
A: Its IC50 is 1.36 µg/mL (≈ 3.3 µM).

Q: With COc1ccc(-c2ccc(C#N)c(SCC(=O)OCc3ccccc3)n2)cc1 as the molecule, how does the IC50 read?
A: The IC50 was 14.3 µg/mL (≈ 36.5 µM).

Q: How did the IC50 turn out when CCOC(=O)c1ccc(NC(=O)CC2C(=O)N(Cc3ccccc3)C(=S)N2Cc2cccnc2)cc1 (stereo not given) was run?
A: Its IC50 is 6.04 µg/mL (≈ 12 µM).

Q: Which IC50 does the source give for CC(C)(C)c1cc(Cl)ccc1OCCCCn1ccnc1 here?
A: The IC50 was 1.41 µg/mL (≈ 4.6 µM).

Q: For CCCCC(=O)NC(=S)NNC(=O)c1ccc(C)c(Br)c1, which IC50 is on record?
A: The IC50 was 2.79 µg/mL (≈ 7.49 µM).

Q: How did the IC50 turn out when COC(=O)c1ccc(NC(=O)COc2ccc(-c3ccc(C#N)cc3)cc2)cc1 was run?
A: The IC50 was 0.41 µg/mL (≈ 1.06 µM).

Q: How did the IC50 turn out when Cc1cc(Oc2nc([N+](=O)[O-])nn2C)ccc1Cl was run?
A: The IC50 was 5.88 µg/mL (≈ 21.9 µM).

Q: With CCOc1cc(CNCc2ccccc2OCc2ccccc2)cc(Cl)c1OCC as the molecule, how does the IC50 read?
A: Its IC50 is 1.94 µg/mL (≈ 4.55 µM).

Q: How did the IC50 turn out when COC(=O)COc1ccc(C2CCCCC2)cc1 was run?
A: The IC50 was 1.46 µg/mL (≈ 5.88 µM).

Q: Which IC50 does the source give for Cc1ccc(OCC(O)CN2CCc3ccccc3C2)c(C(C)(C)C)c1 (stereo not given) here?
A: The IC50 was 5.9 µg/mL (≈ 16.7 µM).

Q: How did the IC50 turn out when O=C(NC(=S)Nc1ccccc1N1CCCC1)c1cccc2ccccc12 was run?
A: Its IC50 is 0.36 µg/mL (≈ 0.959 µM).

Q: How did the IC50 turn out when COc1cc(/C=C2\Oc3ccccc3C2O)cc(Cl)c1OC (stereo not given) was run?
A: The IC50 was 3.04 µg/mL (≈ 9.54 µM).

Q: How did the IC50 turn out when CN(C)C(=O)CSc1cccc2cccnc12 was run?
A: The IC50 was 6.25 µg/mL (≈ 25.4 µM).

Q: For O=C(NCc1ccc(Cl)cc1)c1ccccc1-c1ccccc1, which IC50 is on record?
A: Its IC50 is 13.2 µg/mL (≈ 41.1 µM).

Q: Which IC50 does the source give for COc1ccccc1C1CC(=O)C2=C(C1)NC(C)=C(C(=O)OC1CCCC1)C2c1ccc(O)cc1 (stereo not given) here?
A: Its IC50 is 4.74 µg/mL (≈ 10 µM).

Q: For CC(=O)c1cccc(NC(=S)NC(=O)c2ccc(C(C)(C)C)cc2)c1, which IC50 is on record?
A: Its IC50 is 12.5 µg/mL (≈ 35.3 µM).

Q: How did the IC50 turn out when Cc1ccc2[nH]c3c(c2c1)CCCC3NCCCOc1ccc(F)cc1 (stereo not given) was run?
A: The IC50 was 1.7 µg/mL (≈ 4.82 µM).

Q: How did the IC50 turn out when COC(=O)COc1ccc(NC(=O)c2ccccc2F)cc1 was run?
A: The IC50 was 0.65 µg/mL (≈ 2.14 µM).

Q: For C=CCc1cc(C)ccc1OCCCCn1ccnc1, which IC50 is on record?
A: The IC50 was 1.45 µg/mL (≈ 5.36 µM).

Q: Which IC50 does the source give for O=C(CC(O)(C(F)(F)F)C(F)(F)F)Nc1cc(Cl)ccc1Cl here?
A: Its IC50 is 5.84 µg/mL (≈ 15.8 µM).

Q: For O=C1N(Cc2ccccc2Cl)c2ccc(Cl)cc2C1(O)c1c[nH]c2ccccc12 (stereo not given), which IC50 is on record?
A: Its IC50 is 3.04 µg/mL (≈ 7.18 µM).

Q: For Fc1ccc(Nc2nc(-c3ccccn3)cs2)cc1, which IC50 is on record?
A: Its IC50 is 0.28 µg/mL (≈ 1.03 µM).

Q: Which IC50 does the source give for COc1cc(SC)ccc1C(=O)NCCOc1ccc(F)cc1 here?
A: The IC50 was 12.1 µg/mL (≈ 36.2 µM).

Q: Which IC50 does the source give for CN(C)C(=S)NC(=O)c1cccc(Cl)c1 here?
A: The IC50 was 4.63 µg/mL (≈ 19.1 µM).

Q: For Cc1ccc(C(=O)NCCC23CC4CC(CC(C4)C2)C3)cc1, which IC50 is on record?
A: The IC50 was 0.18 µg/mL (≈ 0.605 µM).

Q: For O=C(CCc1nc(-c2ccc(Cl)cc2)no1)OCc1ccc(Br)cc1, which IC50 is on record?
A: The IC50 was > 50 µg/mL (inactive).

Q: How did the IC50 turn out when Cc1ccc(NC(=O)C2C3CC/C=C\CC/C=C/CCC32)cc1C (stereo not given) was run?
A: Its IC50 is 23.6 µg/mL (≈ 72.8 µM).

Q: With O=[N+]([O-])c1ccc(NC(=S)NCc2ccc(Cl)c(Cl)c2)cc1 as the molecule, how does the IC50 read?
A: Its IC50 is 1.84 µg/mL (≈ 5.17 µM).

Q: How did the IC50 turn out when COC(=O)c1c(C)oc2ccc(OC(=O)c3ccc([N+](=O)[O-])cc3)cc12 was run?
A: The IC50 was > 50 µg/mL (inactive).

Q: CSc1ccc(C(CC(=O)c2ccccc2)Nc2ccc(F)cc2)cc1 (stereo not given) was tested. Which IC50 did it give?
A: The IC50 was 1.47 µg/mL (≈ 4.02 µM).

Q: Which IC50 does the source give for Cc1cccc(C(C)(C)C)c1OCCn1ccnc1 here?
A: Its IC50 is 8.23 µg/mL (≈ 31.9 µM).

Q: N#CSc1ccc(NC(=O)CSc2nc3ccccc3[nH]2)cc1 was tested. Which IC50 did it give?
A: Its IC50 is 6.24 µg/mL (≈ 18.3 µM).

Q: COc1ccc(CNc2ccccc2O)cc1OC was tested. Which IC50 did it give?
A: Its IC50 is 16.3 µg/mL (≈ 62.7 µM).

Q: For COc1ccc(OC(=O)c2sc3ccccc3c2Cl)cc1, which IC50 is on record?
A: Its IC50 is > 50 µg/mL (inactive).

Q: Which IC50 does the source give for Fc1ccccc1-c1nc(-c2cnc3ccccc3c2)c(-c2cccs2)[nH]1 here?
A: The IC50 was 5.05 µg/mL (≈ 13.6 µM).

Q: COc1ccc2nc(Nc3nc(C)c(C)c(=O)[nH]3)nc(C)c2c1 was tested. Which IC50 did it give?
A: The IC50 was > 50 µg/mL (inactive).

Q: With COC(=O)c1ccc(OCC(=O)Nc2ccccc2F)cc1 as the molecule, how does the IC50 read?
A: The IC50 was 0.55 µg/mL (≈ 1.81 µM).

Q: For CCOC(=O)Cn1cc(C#N)c2cccc(CC)c21, which IC50 is on record?
A: Its IC50 is 0.87 µg/mL (≈ 3.39 µM).

Q: With COC(=O)CSc1nnc(-c2ccc(Cl)cc2)o1 as the molecule, how does the IC50 read?
A: Its IC50 is under 0.1 µg/mL.

Q: For CC(C)(C)c1cc(Cl)c(O)c(NC(=S)NC(=O)c2cccnc2)c1, which IC50 is on record?
A: Its IC50 is under 0.1 µg/mL.

Q: With COC(=O)COc1ccc(Br)cc1C=O as the molecule, how does the IC50 read?
A: The IC50 was 12.4 µg/mL (≈ 45.5 µM).

Q: O=C(/C=C\c1ccccc1)Nc1cccc(-c2nc3ccccc3[nH]2)c1 was tested. Which IC50 did it give?
A: The IC50 was 7.66 µg/mL (≈ 22.6 µM).

Q: For Cc1csc(NC(=O)CSc2ccc(Br)cc2)n1, which IC50 is on record?
A: Its IC50 is 5.62 µg/mL (≈ 16.4 µM).

Q: With Cc1ccc(C)c(N2C(=O)c3cccc4c([N+](=O)[O-])ccc(c34)C2=O)c1 as the molecule, how does the IC50 read?
A: The IC50 was 0.76 µg/mL (≈ 2.19 µM).

Q: For Cn1nc(-c2ccc(N3CCCCC3)c(NC(=O)c3ccco3)c2)c2ccccc2c1=O, which IC50 is on record?
A: Its IC50 is > 50 µg/mL (inactive).

Q: Which IC50 does the source give for COc1ccccc1N1C(=O)c2cccc3cc([N+](=O)[O-])cc(c23)C1=O here?
A: The IC50 was 0.16 µg/mL (≈ 0.459 µM).
